Laboratory results: ChEMBL document CHEMBL3046627, “Synthesis and in vitro study of antibacterial, antifungal activities of some novel bisquinolines” (2013)
≈ marks a conversion by molar mass, not a printed value. Calls of active or inactive are those of the source. The calls are words filed in the database; no cut-off is given here.

Legend:
Bacillus pumilus [1] = experiment: Antibacterial activity against Bacillus pumilus 11778 assessed as growth inhibition at MIC after 24 hr by agar dilution method; assay type: functional
Pseudomonas aeruginosa [2] = experiment: Antibacterial activity against Pseudomonas aeruginosa 71 assessed as growth inhibition at MIC after 24 hr by agar dilution method; assay type: functional
Vibrio cholerae [3] = experiment: Antibacterial activity against Vibrio cholerae 759 assessed as growth inhibition at MIC after 24 hr by agar dilution method; assay type: functional
Klebsiella pneumoniae [4] = experiment: Antibacterial activity against Klebsiella pneumoniae J/I/4 assessed as growth inhibition at MIC after 24 hr by agar dilution method; assay type: functional
Aspergillus niger [5] = experiment: Antifungal activity against Aspergillus niger assessed as growth inhibition after 96 hr by agar dilution method; assay type: functional
Candida albicans [6] = experiment: Antifungal activity against Candida albicans assessed as growth inhibition after 96 hr by agar dilution method; assay type: functional
Candida tropicalis [7] = experiment: Antifungal activity against Candida tropicalis assessed as growth inhibition after 96 hr by agar dilution method; assay type: functional
Cryptococcus neoformans [8] = experiment: Antifungal activity against Cryptococcus neoformans assessed as growth inhibition after 96 hr by agar dilution method; assay type: functional
Aspergillus niger [9] = experiment: Antifungal activity against Aspergillus niger assessed as growth inhibition at MIC after 96 hr by agar dilution method; assay type: functional
Candida albicans [10] = experiment: Antifungal activity against Candida albicans assessed as growth inhibition at MIC after 96 hr by agar dilution method; assay type: functional
Candida tropicalis [11] = experiment: Antifungal activity against Candida tropicalis assessed as growth inhibition at MIC after 96 hr by agar dilution method; assay type: functional
Cryptococcus neoformans [12] = experiment: Antifungal activity against Cryptococcus neoformans assessed as growth inhibition at MIC after 96 hr by agar dilution method; assay type: functional
Staphylococcus aureus [13] = experiment: Antibacterial activity against Staphylococcus aureus 29737 assessed as growth inhibition after 24 hr by agar dilution method; assay type: functional
Shigella dysenteriae [14] = experiment: Antibacterial activity against Shigella dysenteriae 15 assessed as growth inhibition after 24 hr by agar dilution method; assay type: functional
Micrococcus luteus [15] = experiment: Antibacterial activity against Micrococcus luteus ATCC 9341 assessed as growth inhibition after 24 hr by agar dilution method; assay type: functional
Escherichia coli [16] = experiment: Antibacterial activity against Escherichia coli 319 assessed as growth inhibition after 24 hr by agar dilution method; assay type: functional
Bacillus pumilus [17] = experiment: Antibacterial activity against Bacillus pumilus 11778 assessed as growth inhibition after 24 hr by agar dilution method; assay type: functional
Pseudomonas aeruginosa [18] = experiment: Antibacterial activity against Pseudomonas aeruginosa 71 assessed as growth inhibition after 24 hr by agar dilution method; assay type: functional
Vibrio cholerae [19] = experiment: Antibacterial activity against Vibrio cholerae 759 assessed as growth inhibition after 24 hr by agar dilution method; assay type: functional
Klebsiella pneumoniae [20] = experiment: Antibacterial activity against Klebsiella pneumoniae J/I/4 assessed as growth inhibition after 24 hr by agar dilution method; assay type: functional
Staphylococcus aureus [21] = experiment: Antibacterial activity against Staphylococcus aureus 29737 assessed as growth inhibition at MIC after 24 hr by agar dilution method; assay type: functional
Shigella dysenteriae [22] = experiment: Antibacterial activity against Shigella dysenteriae 15 assessed as growth inhibition at MIC after 24 hr by agar dilution method; assay type: functional
Micrococcus luteus [23] = experiment: Antibacterial activity against Micrococcus luteus ATCC 9341 assessed as growth inhibition at MIC after 24 hr by agar dilution method; assay type: functional
Escherichia coli [24] = experiment: Antibacterial activity against Escherichia coli 319 assessed as growth inhibition at MIC after 24 hr by agar dilution method; assay type: functional
Escherichia coli [25] = experiment: Antibacterial activity against Escherichia coli 319 assessed as growth inhibition at MIC; assay type: functional, organism-based; details: TDE = time-dependent effect
Klebsiella pneumoniae [26] = experiment: Antibacterial activity against Klebsiella pneumoniae J/I/4 assessed as growth inhibition at MIC; assay type: functional, organism-based; details: TDE = time-dependent effect
Klebsiella pneumoniae [27] = experiment: Antibacterial activity against Klebsiella pneumoniae J/I/4 assessed as cell wall deformation at MIC after 24 hr by scanning electron microscopic analysis relative to untreated control; assay type: functional, organism-based
Klebsiella pneumoniae [28] = experiment: Antibacterial activity against Klebsiella pneumoniae J/I/4 assessed as cell agglomeration at MIC after 24 hr by scanning electron microscopic analysis relative to untreated control; assay type: functional, organism-based
[29] = Staphylococcus aureus, 29737, 24 h
[30] = Pseudomonas aeruginosa, 71, 24 h

SMILES	diameter of the inhibition zone (DIZ) (Bacillus pumilus [1])	diameter of the inhibition zone (DIZ) (Pseudomonas aeruginosa [2])	diameter of the inhibition zone (DIZ) (Vibrio cholerae [3])	diameter of the inhibition zone (DIZ) (Klebsiella pneumoniae [4])	MIC (Aspergillus niger [5])	MIC (Candida albicans [6])	MIC (Candida tropicalis [7])	MIC (Cryptococcus neoformans [8])	diameter of the inhibition zone (DIZ) (Aspergillus niger [9])	diameter of the inhibition zone (DIZ) (Candida albicans [10])	diameter of the inhibition zone (DIZ) (Candida tropicalis [11])	diameter of the inhibition zone (DIZ) (Cryptococcus neoformans [12])	MIC (Staphylococcus aureus [13]; [29]) [µg/mL]	MIC (Shigella dysenteriae [14]; Shigella dysenteriae, 15, 24 h) [µg/mL]	MIC (Micrococcus luteus [15]; ATCC 9341, 24 h) [µg/mL]	MIC (Escherichia coli [16]; Escherichia coli, 319, 24 h) [µg/mL]	MIC (Bacillus pumilus [17]; Bacillus pumilus, 11778, 24 h) [µg/mL]	MIC (Pseudomonas aeruginosa [18]; [30]) [µg/mL]	MIC (Vibrio cholerae [19]; Vibrio cholerae, 759, 24 h) [µg/mL]	MIC (Klebsiella pneumoniae [20]; J/I/4, 24 h) [µg/mL]	further results
Cc1ccc2cccc(OCc3ccccc3COc3cccc4ccc(C)nc34)c2n1	7 mm	inactive	8 mm	8 mm	1000 µg/mL (≈ 2380 µM)	inactive	2000 µg/mL (≈ 4760 µM)	inactive	9 mm	inactive	7 mm	inactive	128 (≈ 304 µM)	32 (≈ 76.1 µM)	128 (≈ 304 µM)	> 1000	> 500	> 500	64 (≈ 152 µM)	32 (≈ 76.1 µM)	diameter of the inhibition zone (DIZ) (Staphylococcus aureus [21]): 6 mm; diameter of the inhibition zone (DIZ) (Shigella dysenteriae [22]): 8 mm; diameter of the inhibition zone (DIZ) (Micrococcus luteus [23]): 7 mm; diameter of the inhibition zone (DIZ) (Escherichia coli [24]): inactive
Clc1ccc(OCc2cccc(COc3ccc(Cl)c4cccnc34)c2)c2ncccc12	inactive	6 mm	6 mm	6 mm	1000 µg/mL (≈ 2170 µM)	inactive	1000 µg/mL (≈ 2170 µM)	inactive	8 mm	inactive	7 mm	inactive	128 (≈ 277 µM)	32 (≈ 69.4 µM)	64 (≈ 139 µM)	> 500	> 500	256 (≈ 555 µM)	256 (≈ 555 µM)	32 (≈ 69.4 µM)	diameter of the inhibition zone (DIZ) (Staphylococcus aureus [21]): 8 mm; diameter of the inhibition zone (DIZ) (Shigella dysenteriae [22]): 8 mm; diameter of the inhibition zone (DIZ) (Micrococcus luteus [23]): 8 mm; diameter of the inhibition zone (DIZ) (Escherichia coli [24]): inactive
c1cc(COc2cccc3cccnc23)cc(COc2cccc3cccnc23)c1	–	–	–	–	inactive	inactive	inactive	inactive	inactive	inactive	inactive	inactive	–	–	–	–	–	–	–	–	MIC (Staphylococcus aureus [13]): inactive; MIC (Shigella dysenteriae [14]): inactive; MIC (Micrococcus luteus [15]): inactive; MIC (Escherichia coli [16]): inactive; MIC (Bacillus pumilus [17]): inactive; MIC (Pseudomonas aeruginosa [18]): inactive; MIC (Vibrio cholerae [19]): inactive; MIC (Klebsiella pneumoniae [20]): inactive
c1ccc(COc2cccc3cccnc23)c(COc2cccc3cccnc23)c1	inactive	6 mm	inactive	8 mm	inactive	inactive	inactive	inactive	inactive	inactive	inactive	inactive	32 (≈ 81.5 µM)	32 (≈ 81.5 µM)	> 500	> 500	500 (≈ 1270 µM)	> 500	> 500	32 (≈ 81.5 µM)	diameter of the inhibition zone (DIZ) (Staphylococcus aureus [21]): 7.2 mm; diameter of the inhibition zone (DIZ) (Shigella dysenteriae [22]): 6.5 mm; diameter of the inhibition zone (DIZ) (Micrococcus luteus [23]): 7 mm; diameter of the inhibition zone (DIZ) (Escherichia coli [24]): inactive
Clc1ccc(OCc2ccccc2COc2ccc(Cl)c3cccnc23)c2ncccc12	6 mm	7.5 mm	7 mm	inactive	1000 µg/mL (≈ 2170 µM)	1500 µg/mL (≈ 3250 µM)	1000 µg/mL (≈ 2170 µM)	inactive	7.5 mm	7 mm	9 mm	inactive	128 (≈ 277 µM)	64 (≈ 139 µM)	32 (≈ 69.4 µM)	32 (≈ 69.4 µM)	32 (≈ 69.4 µM)	64 (≈ 139 µM)	32 (≈ 69.4 µM)	> 500	growth inhibition (GI) (Escherichia coli [25]): tde; diameter of the inhibition zone (DIZ) (Staphylococcus aureus [21]): 7 mm; diameter of the inhibition zone (DIZ) (Shigella dysenteriae [22]): 6 mm; diameter of the inhibition zone (DIZ) (Micrococcus luteus [23]): 6.5 mm; diameter of the inhibition zone (DIZ) (Escherichia coli [24]): 6.5 mm
Clc1ccc(OCc2nc3ccccc3nc2COc2ccc(Cl)c3cccnc23)c2ncccc12	8 mm	inactive	inactive	6 mm	1000 µg/mL (≈ 1950 µM)	1000 µg/mL (≈ 1950 µM)	1500 µg/mL (≈ 2920 µM)	inactive	7.5 mm	7.8 mm	7.5 mm	inactive	> 500	> 500	32 (≈ 62.3 µM)	32 (≈ 62.3 µM)	32 (≈ 62.3 µM)	> 500	> 500	> 500	diameter of the inhibition zone (DIZ) (Staphylococcus aureus [21]): inactive; diameter of the inhibition zone (DIZ) (Shigella dysenteriae [22]): 6 mm; diameter of the inhibition zone (DIZ) (Micrococcus luteus [23]): 7 mm; diameter of the inhibition zone (DIZ) (Escherichia coli [24]): 8 mm
Clc1ccc(OCc2cc3ccccc3cc2COc2ccc(Cl)c3cccnc23)c2ncccc12	8 mm	inactive	8 mm	7 mm	inactive	inactive	inactive	inactive	–	–	–	–	> 500	> 500	32 (≈ 62.6 µM)	32 (≈ 62.6 µM)	32 (≈ 62.6 µM)	> 500	128 (≈ 250 µM)	32 (≈ 62.6 µM)	growth inhibition (GI) (Klebsiella pneumoniae [26]): tde; Activity (Klebsiella pneumoniae [27]): Active; Activity (Klebsiella pneumoniae [28]): Active; diameter of the inhibition zone (DIZ) (Staphylococcus aureus [21]): 6 mm; diameter of the inhibition zone (DIZ) (Shigella dysenteriae [22]): inactive; diameter of the inhibition zone (DIZ) (Micrococcus luteus [23]): 8 mm; diameter of the inhibition zone (DIZ) (Escherichia coli [24]): 7.2 mm
